Results reported in PMC6273687, “Design, Synthesis and Biological Evaluation of Novel Primaquine-Cinnamic Acid Conjugates of the Amide and Acylsemicarbazide Type” (Molecules, 2016).

What was measured:
[1] = target: T1, soybean lipoxygenase (LOX) (Glycine max, UniProt P08170); assay: LOX inhibition study in vitro; format: biochemical; conditions: values in parentheses in Table 3
T1 construct: purchased Sigma-Aldrich
T1 sequence (P08170 1-839): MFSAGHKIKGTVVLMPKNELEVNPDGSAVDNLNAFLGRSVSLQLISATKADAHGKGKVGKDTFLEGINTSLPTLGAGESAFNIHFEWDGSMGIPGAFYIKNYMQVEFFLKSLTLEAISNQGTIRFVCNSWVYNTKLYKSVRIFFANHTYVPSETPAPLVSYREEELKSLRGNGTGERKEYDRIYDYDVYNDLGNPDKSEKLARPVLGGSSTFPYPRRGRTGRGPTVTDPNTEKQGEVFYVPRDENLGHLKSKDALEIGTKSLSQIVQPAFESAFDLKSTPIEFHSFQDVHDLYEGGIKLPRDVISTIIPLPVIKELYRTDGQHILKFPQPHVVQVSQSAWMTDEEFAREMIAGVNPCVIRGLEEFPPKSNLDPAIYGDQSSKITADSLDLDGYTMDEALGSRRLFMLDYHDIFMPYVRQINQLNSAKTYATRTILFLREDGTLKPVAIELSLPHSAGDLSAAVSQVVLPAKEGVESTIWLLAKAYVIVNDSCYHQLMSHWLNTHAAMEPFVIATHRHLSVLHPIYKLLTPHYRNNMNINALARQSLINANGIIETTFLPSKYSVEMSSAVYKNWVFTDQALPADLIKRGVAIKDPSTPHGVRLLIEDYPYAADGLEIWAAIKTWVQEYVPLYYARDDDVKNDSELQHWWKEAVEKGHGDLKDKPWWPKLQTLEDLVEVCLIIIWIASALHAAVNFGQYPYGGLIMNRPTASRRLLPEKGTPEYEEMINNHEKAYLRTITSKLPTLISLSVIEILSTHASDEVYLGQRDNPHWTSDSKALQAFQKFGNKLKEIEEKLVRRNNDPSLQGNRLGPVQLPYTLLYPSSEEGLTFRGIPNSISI
Protocol: LOX inhibitory assay in vitro was accomplished as described previously. The test compounds (stock solutions 10 mM in DMSO) were incubated at room temperature with sodium linoleate (c = 0.1 mM) and 0.2 mL of LOX enzyme solution (1/9 × 10^−4 m/V in saline). The conversion of sodium linoleate to 13-hydroperoxylinoleic acid was measured at 234 nm and compared with the reference inhibitor. Several concentrations were used for the IC50 determination.

[2] = Inhibition of linoleic acid peroxidation (AAPH-induced); conditions: 5 × 10^−5 M
Protocol: For initiating the lipid peroxidation free radical AAPH was used. Final solution in the UV cuvette consisted of 10 μL linoleate sodium solution (c = 16 mM), 0.93 mL phosphate buffer (c = 0.05 M), pH 7.4, thermostated at 37 °C. 50 μL AAPH solution (c = 40 mM) and 10 μL of the tested compounds were added. The experiment was performed at 37 °C under air. The oxidation of linoleic acid sodium salt was monitored at 234 nm. The assays were repeated at least in triplicate and the standard deviation of absorbance was less than 10% of the mean. Trolox was used under the same experimental conditions as a reference compound.

human coronavirus (229E) = assay: microbe, parasite or virus in culture; format: cell-based; conditions: read-out: EC50 (concentration required to reduce virus-induced cytopathogenicity by 50%), HEL cell cultures
[3] = test system: HeLa cervical carcinoma cell line; assay: Growth inhibition of tumor cell lines in vitro (MTT / cell counting); format: cell-based; conditions: Homo sapiens
Protocol: (§1) The experiments were carried out on a murine lymphocytic leukemia cell line (L1210) and five human tumor cell lines: CEM, HeLa, NCI-H460, SW 620 and MCF-7. The cells were cultured as monolayers and maintained in Dulbecco′s modified Eagle medium (DMEM) supplemented with 10% fetal bovine serum (FBS), 2 mM L-glutamine, 100 U/mL penicillin and 100 μg/mL streptomycin in a humidified atmosphere with 5% CO2 at 37 °C.
(§2) The growth inhibition activity of the compounds was assessed as described previously. The cell lines were inoculated onto a series of standard 96-well microtiter plates on day 0, at 1.5 × 10^4 cells/mL (SW 620, H460) to 2.5 × 10^4 cells/mL (MCF-7, CEM and L1210), depending on the growth of the tumor cell line. Test agents were then added in ten-fold dilutions (10^−8 to 10^−4 M) and the cell cultures were then incubated for 3–4 days with 5% CO2 at 37 °C. Working dilutions of the compounds were freshly prepared on the day of testing.
(§3) After 3 (MCF-7, SW 620, NCI-H460) or 4 days (CEM, L1210), the cell growth rate was evaluated first light microscopically, then by viable cell counting and/or by performing the MTT assay, which detects dehydrogenase activity in live, not dead, cells. The absorbance (A) was measured on a microplate reader at 570 nm. The absorbance is directly proportional to the number of living, metabolically active cells. […] If however, all of the tested concentrations produce PGs exceeding the respective reference level of effect (e.g., PG value of 50), then the highest tested concentration is assigned as the default value, which is preceded by a “>” sign. Minimum two individual experiments were carried out and each test point was performed in quadruplicate.

[4] = test system: CEM acute lymphoblastic leukemia cell line; assay: as above; format: cell-based; conditions: Homo sapiens, 96 h, 4 days
Protocol: as §1, §2, §3

[5] = test system: L1210 murine lymphocytic leukemia cell line; assay: as above; format: cell-based; conditions: Mus musculus, 96 h; L1210, 4 days
Protocol: as §1, §2, §3

[6] = test system: SW 620 colon carcinoma cell line; assay: as above; format: cell-based; conditions: Homo sapiens, 72 h; SW 620, 3 days
Protocol: as §1, §2, §3

[7] = test system: MCF-7 breast carcinoma cell line; assay: as above; format: cell-based, human; conditions: MCF-7, 3 days
Protocol: as §1, §2, §3

[8] = test system: NCI-H460 lung carcinoma cell line; assay: as above; format: cell-based, human; conditions: NCI-H460, 3 days
Protocol: as §1, §2, §3

[9] = Interaction with the stable radical DPPH (reducing ability)
Protocol: To a solution of DPPH in absolute ethanol the appropriate volume of the compounds (50 or 100 µM final concentrations) dissolved in DMSO was added. The absorbance was recorded at 517 nm after 20 and 60 min at room temperature. The experiments were repeated at least in triplicate and the standard deviation of absorbance was less than 10% of the mean. NDGA was used under the same experimental conditions as a reference compound.

colon carcinoma HCT 116 = assay: Growth inhibition of tumor cell lines in vitro (reference drugs); format: cell-based; conditions: colon carcinoma HCT 116 (footnote b, printed in SW 620 column)

SMILES	IC50 [1]	LP Inhibition (%) [2]	EC50 (human coronavirus (229E))	IC50 [3]	IC50 [4]	IC50 [5]	IC50 [6]	IC50 ([7]; Homo sapiens, MCF7, 72 h)	IC50 ([8]; Homo sapiens, 72 h)	DPPH-reducing ability RA (%) ([9]; 1 × 10^−4 M, 20 min)	DPPH-reducing ability RA (%) ([9]; 1 × 10^−4 M, 60 min)	DPPH-reducing ability RA (%) ([9]; 5 × 10^−5 M, 20 min)	DPPH-reducing ability RA (%) ([9]; 5 × 10^−5 M, 60 min)	IC50 (colon carcinoma HCT 116)	IC50 [7]	IC50 [8]
COc1cc(NC(C)CCCNC(=O)NNC(=O)/C=C/c2ccc3c(c2)OCO3)c2ncccc2c1 (stereo not shown) [7f, (E)-1-(3-(Benzo[d][1,3]dioxo-5-yl)acryloyl)-4-(4-(6-methoxyquinolin-8-ylamino)pentyl)semicarbazide]	55 µM	88%	12.5 µM	31 µM	7.4 ± 2.1 µM	4.8 ± 0.2 µM	17 ± 5 µM	0.6 ± 0.3 µM	27 ± 3 µM	74%	100%	47%	100%			
COc1cc(NC(C)CCCNC(=O)NNC(=O)/C(C)=C/c2ccccc2)c2ncccc2c1 (stereo not shown) [7b, (E)-4-(4-(6-Methoxyquinolin-8-ylamino)pentyl)-1-(2-methyl-3-phenylacryloyl)semicarbazide]	100 µM	62%	15 µM	47 ± 6 µM	25 ± 14 µM	53 ± 5 µM	9.5 ± 0.9 µM	16 ± 9 µM	50 ± 4 µM	84%	99%	42%	100%			
N.N.[Cl][Pt][Cl] [CIS, cisplatin, reference compound]														7 ± 2 µM	10 ± 1 µM	1 ± 0.1 µM
COc1cc(NC(C)CCCNC(=O)NNC(=O)/C=C/c2cc(C(F)(F)F)cc(C(F)(F)F)c2)c2ncccc2c1 (stereo not shown) [7k, (E)-1-(3-(3,5-Bis(trifluoromethyl)phenyl)acryloyl)-4-(4-(6-methoxyquinolin-8-ylamino)pentyl)semicarbazide]	67.5 µM	55%	8.4 µM	30 ± 23 µM	17 ± 5 µM	30 ± 17 µM	32 ± 4 µM	3.2 ± 0.8 µM	48 ± 2 µM	98%	97%	72%	100%			
COc1cc(NC(C)CCCNC(=O)NNC(=O)/C=C/c2cccc(C(F)(F)F)c2)c2ncccc2c1 (stereo not shown) [7i, (E)-4-(4-(6-Methoxyquinolin-8-ylamino)pentyl)-1-(3-(3-(trifluoromethyl)phenyl)acryloyl)semicarbazide]	42.5 µM	84%	7.9 µM	10 ± 1 µM	10 ± 1 µM	9.4 ± 4.8 µM	16 ± 5 µM	2.3 ± 0.2 µM	18 ± 3 µM	96%	73%	71%	100%			
